In patent publication EP2998294A1, “Naphthyl sulfonamide phenyl derivatives as KEAP-1 modulators for the treatment of diabetes, obesity, dyslipidemia and related disorders” (SANOFI, priority 2014, dated 2016):

These molecules were tested against T1, human Keap1 kelch domain (amino acids Ala321-Thr609) (Homo sapiens, UniProt Q14145) (assay: Keap1-Nrf2 peptide binding assay (fluorescence polarisation)). Details: not given.
T1 construct: human Keap1 kelch domain (amino acids Ala321-Thr609)
Procedure: A fluorescence polarisation assay was used to measure binding of the human Keap1 kelch domain (amino acids Ala321-Thr609) to a fluorescently labeled peptide containing a Keap1 binding site of human Nrf2 (Alexa633-AFFAQLQLDEETGEFL; JPT Technologies, Berlin, Germany). Two microliters of test compound in reaction buffer (phosphate-buffered saline, 2 mM DL-dithiothreitol, 0.015 % (v/v) Brij-35) containing 6 % (v/v) DMSO were mixed with two microliters of the Keap1 kelch domain in reaction buffer in a black 384-well small volume microtiter plate and incubated at ambient temperature for 15 minutes. Thereafter, two microliters were added of the fluorescently labeled Nrf2 peptide in reaction buffer, and the mixture was incubated for a further 30 minutes at ambient temperature. Final concentrations of the Keap1 kelch domain and the fluorescently labeled Nrf2 peptide were 20 nM and 50 nM, respectively.
Fluorescence polarization (FP) was measured at excitation and emission wavelengths of 635 nm and 660 nm, respectively. Positive controls for binding (two microliters of reaction buffer containing 6 % (v/v) DMSO instead of test compound in the same buffer) and negative controls (as positive controls, but without Keap1 kelch domain) were included on each microtiter plate. Data were expressed as percent-inhibition values: percentinhibition = 100⋅(1-(|FPcompound-FPnegative controle|)/(|FPpositive controle-FPnegative controle|)) [formula]
IC50 values were determined by testing different compound concentrations and fitting the resulting percent-inhibition values to the following equation using XLFit4: percentinhibition = A + (B-A)/(1 + (((IC50)/([Compound])))^D) [formula]
Parameter A was set to zero, pre-fit values for parameters B and D were set to 100 and 1, respectively.

T1 sequence (Q14145 321-609): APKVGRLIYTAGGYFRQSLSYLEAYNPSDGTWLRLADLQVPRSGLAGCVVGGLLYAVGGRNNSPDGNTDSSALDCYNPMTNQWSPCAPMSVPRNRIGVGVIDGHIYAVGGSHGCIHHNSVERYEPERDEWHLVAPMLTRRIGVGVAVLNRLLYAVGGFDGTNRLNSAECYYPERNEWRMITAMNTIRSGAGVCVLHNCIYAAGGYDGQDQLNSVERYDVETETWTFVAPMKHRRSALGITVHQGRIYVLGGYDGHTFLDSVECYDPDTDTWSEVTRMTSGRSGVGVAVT

Question: How did the IC50 turn out when O=C1Cc2cc(S(=O)(=O)Nc3ccc(-c4cccc(C(=O)O)c4)c4ccccc34)ccc2N1 [Example 51, [4-[(2-oxoindolin-5-yl)sulfonylamino]-1-naphthyl]benzoic acid] was run?
Answer: 7800 nM

Same assay, conditions: binding of Keap1 kelch domain (20 nM) to fluorescently labeled Nrf2 peptide (50 nM)

Question: How did the IC50 turn out when O=C(O)c1cccc(-c2ccc(NS(=O)(=O)c3ccc(Cl)c(C(F)(F)F)c3)c3ccccc23)c1 [Example 37, [4-[[4-chloro-3-(trifluoromethyl)phenyl]sulfonylamino]-1-naphthyl]benzoic acid] was run?
Answer: 4000 nM

Question: Which IC50 does the source give for O=C(O)c1cccc(-c2ccc(NS(=O)(=O)c3ccc(OC(F)(F)F)c(Cl)c3)c3ccccc23)c1 [Example 38, 3-[4-[[3-chloro-4-(trifluoromethoxy)phenyl]sulfonylamino]-1-naphthyl]benzoic acid] here?
Answer: 6800 nM

Question: For O=C(O)c1cccc(-c2ccc(NS(=O)(=O)c3cc(Cl)c(F)cc3F)c3ccccc23)c1 [Example 40, 3-[4-[(5-chloro-2,4-difluorophenyl)sulfonylamino]-1-naphthyl]benzoic acid], which IC50 is on record?
Answer: 4400 nM

Question: With Cc1ccc(Cl)cc1S(=O)(=O)Nc1ccc(-c2cccc(C(=O)O)c2)c2ccccc12 [Example 41, 3-[4-[(5-chloro-2-methylphenyl)sulfonylamino]-1-naphthyl]benzoic acid] as the molecule, how does the IC50 read?
Answer: 1400 nM

Question: For O=C(O)c1cccc(-c2ccc(NS(=O)(=O)c3cc(F)cc(F)c3F)c3ccccc23)c1 [Example 42, 3-[4-[(2,3,5-trifluorophenyl)sulfonylamino]-1-naphthyl]benzoic acid], which IC50 is on record?
Answer: 6400 nM

Question: How did the IC50 turn out when CN1CCOc2cc(S(=O)(=O)Nc3ccc(-c4cccc(C(=O)O)c4)c4ccccc34)ccc21 [Example 43, 3-[4-[(4-methyl-2,3-dihydro-1,4-benzoxazin-7-yl)sulfonylamino]-1-naphthyl]benzoic acid] was run?
Answer: 1600 nM

Question: For O=C(O)c1cccc(-c2ccc(NS(=O)(=O)c3ccc4ncsc4c3)c3ccccc23)c1 [Example 44, 3-[4-(1,3-benzothiazol-6-ylsulfonylamino)-1-naphthyl]benzoic acid], which IC50 is on record?
Answer: 3800 nM

Question: How did the IC50 turn out when Cc1c(Cl)cc(F)cc1S(=O)(=O)Nc1ccc(-c2cccc(C(=O)O)c2)c2ccccc12 [Example 46, 3-[4-[(3-chloro-5-fluoro-2-methylphenyl)sulfonylamino]-1-naphthyl]benzoic acid] was run?
Answer: 2100 nM

Question: For Cc1cc(NC(=O)c2ccccc2)ccc1S(=O)(=O)Nc1ccc(-c2cccc(C(=O)O)c2)c2ccccc12 [Example 47, 3-[4-[(4-benzamido-2-methylphenyl)sulfonylamino]-1-naphthyl]benzoic acid], which IC50 is on record?
Answer: 5000 nM

Question: For O=C(O)c1cccc(-c2ccc(NS(=O)(=O)c3cc(Cl)cc(Cl)c3)c3ccccc23)c1 [Example 48, 3-[4-[(3,5-dichlorophenyl)sulfonylamino]-1-naphthyl]benzoic acid], which IC50 is on record?
Answer: 2300 nM

Question: Which IC50 does the source give for O=C(O)c1cccc(-c2ccc(NS(=O)(=O)c3cc(Cl)sc3Cl)c3ccccc23)c1 [Example 49, 3-[4-[(2,5-dichloro-3-thienyl)sulfonylamino]-1-naphthyl]benzoic acid] here?
Answer: 1700 nM

Question: O=C(O)c1cccc(-c2ccc(NS(=O)(=O)c3c(Cl)cc(C(F)(F)F)cc3Cl)c3ccccc23)c1 [Example 52, 3-[4-[[2,6-dichloro-4-(trifluoromethyl)phenyl]sulfonylamino]-1-naphthyl]benzoic acid] was tested. Which IC50 did it give?
Answer: 1400 nM

Question: How did the IC50 turn out when Cc1ccc(C#N)c(S(=O)(=O)Nc2ccc(-c3cccc(C(=O)O)c3)c3ccccc23)c1 [Example 53, 3-[4-[(2-cyano-5-methylphenyl)sulfonylamino]-1-naphthyl]benzoic acid] was run?
Answer: 6700 nM

Question: With O=C(O)c1cccc(-c2ccc(NS(=O)(=O)c3cc(Cl)ccc3Cl)c3ccccc23)c1 [Example 54, 3-[4-[(2,5-dichlorophenyl)sulfonylamino]-1-naphthyl]benzoic acid] as the molecule, how does the IC50 read?
Answer: 3700 nM

Question: Cc1cc(Cl)c(C)c(S(=O)(=O)Nc2ccc(-c3cccc(C(=O)O)c3)c3ccccc23)c1Cl [Example 57, 3-[4-[(2,5-dichloro-3,6-dimethylphenyl)sulfonylamino]-1-naphthyl]benzoic acid] was tested. Which IC50 did it give?
Answer: 600 nM

Question: With O=C(O)c1ccc(F)c(-c2ccc(NS(=O)(=O)c3cccc(Cl)c3Cl)c3ccccc23)c1 [Example 74, 3-[4-[(2,3-dichlorophenyl)sulfonylamino]-1-naphthyl]-4-fluoro-benzoic acid] as the molecule, how does the IC50 read?
Answer: 900 nM

Same assay, conditions: binding of Keap1 kelch domain (20 nM) to fluorescently labeled Nrf2 peptide (50 nM); read-out: IC50

Question: Cc1nc(-c2ccccc2)sc1S(=O)(=O)Nc1ccc(-c2cccc(C(=O)O)c2)c2ccccc12 [Example 39, 3-[4-[(4-methyl-2-phenyl-thiazol-5-yl)sulfonylamino]-1-naphthyl]benzoic acid] was tested. Which IC50 did it give?
Answer: 2800 nM

Question: For Cc1cc(NC(=O)N2CCOCC2)ccc1S(=O)(=O)Nc1ccc(-c2cccc(C(=O)O)c2)c2ccccc12 [Example 45, 3-[4-[[2-methyl-4-(morpholine-4-carbonylamino)phenyl]sulfonylamino]-1-naphthyl]benzoic acid], which IC50 is on record?
Answer: 2500 nM

Question: How did the IC50 turn out when Cc1nn(-c2ccccc2)c(C)c1S(=O)(=O)Nc1ccc(-c2cccc(C(=O)O)c2)c2ccccc12 [Example 50, 3-[4-[(3,5-dimethyl-1-phenyl-pyrazol-4-yl)sulfonylamino]-1-naphthyl]benzoic acid] was run?
Answer: 1600 nM

Question: Which IC50 does the source give for O=C(O)c1cccc(-c2ccc(NS(=O)(=O)c3ccc4c(c3)OCCO4)c3ccccc23)c1 [Example 55, 3-[4-(2,3-dihydro-1,4-benzodioxin-6-ylsulfonylamino)-1-naphthyl]benzoic acid] here?
Answer: 4300 nM

Question: Which IC50 does the source give for Cc1nn(C)c(Cl)c1S(=O)(=O)Nc1ccc(-c2cc(C(=O)O)ccc2F)c2ccccc12 [Example 56, 3-[4-[(5-chloro-1,3-dimethyl-pyrazol-4-yl)sulfonylamino]-1-naphthyl]-4-fluorobenzoic acid] here?
Answer: 300 nM

Question: How did the IC50 turn out when Cc1cc(S(=O)(=O)Nc2ccc(-c3cccc(C(=O)O)c3)c3ccccc23)c(C)o1 [Example 58, 3-[4-[(2,5-dimethyl-3-furyl)sulfonylamino]-1-naphthyl]benzoic acid] was run?
Answer: 4600 nM

Question: With CCCCCCCCc1cc(-c2cccc(C(=O)O)c2)c2ccccc2c1NS(=O)(=O)c1c(C)c(C)cc(C)c1C [Example 59, 3-[3-octyl-4-[(2,3,5,6-tetramethylphenyl)sulfonylamino]-1-naphthyl]benzoic acid] as the molecule, how does the IC50 read?
Answer: 46000 nM

Question: How did the IC50 turn out when O=C(O)c1cccc(-c2ccc(NS(=O)(=O)c3c(Cl)nc4sccn34)c3ccccc23)c1 [Example 60, 3-[4-[(6-chloroimidazo[2,1-b]thiazol-5-yl)sulfonylamino]-1-naphthyl]benzoic acid] was run?
Answer: 900 nM

Question: Which IC50 does the source give for Cc1ccc2c(NS(=O)(=O)c3c(C)c(C)cc(C)c3C)ccc(-c3cc(C(=O)O)ccc3F)c2n1 [Example 61, 4-fluoro-3-[2-methyl-5-[(2,3,5,6-tetramethylphenyl)sulfonylamino]-8-quinolyl]benzoic acid; 2,2,2-trifluoroacetic acid] here?
Answer: 500 nM

Question: Which IC50 does the source give for CCCCn1cc(S(=O)(=O)Nc2ccc(-c3cccc(C(=O)O)c3)c3ccccc23)c(C)n1 [Example 62, 3-[4-[(1-butyl-3-methyl-pyrazol-4-yl)sulfonylamino]-1-naphthyl]benzoic acid] here?
Answer: 700 nM

Question: CCCn1ncc(S(=O)(=O)Nc2ccc(-c3cccc(C(=O)O)c3)c3ccccc23)c1C [Example 63, 3-[4-[(5-methyl-1-propyl-pyrazol-4-yl)sulfonylamino]-1-naphthyl]benzoic acid] was tested. Which IC50 did it give?
Answer: 3200 nM

Question: With Cc1nn(CC(C)C)cc1S(=O)(=O)Nc1ccc(-c2cccc(C(=O)O)c2)c2ccccc12 [Example 64, 3-[4-[(1-isobutyl-3-methyl-pyrazol-4-yl)sulfonylamino]-1-naphthyl]benzoic acid] as the molecule, how does the IC50 read?
Answer: 4500 nM

Question: Cc1c(S(=O)(=O)Nc2ccc(-c3cccc(C(=O)O)c3)c3ccccc23)cnn1C1CCCC1 [Example 67, 3-[4-[(1-cyclopentyl-5-methyl-pyrazol-4-yl)sulfonylamino]-1-naphthyl]benzoic acid] was tested. Which IC50 did it give?
Answer: 1800 nM

Question: How did the IC50 turn out when Cc1c(S(=O)(=O)Nc2ccc(-c3cccc(C(=O)O)c3)c3ccccc23)cnn1CC(C)C [Example 68, 3-[4-[(1-isobutyl-5-methyl-pyrazol-4-yl)sulfonylamino]-1-naphthyl]benzoic acid] was run?
Answer: 2400 nM

Question: With CCCCn1cc(S(=O)(=O)Nc2ccc(-c3cc(C(=O)O)ccc3F)c3ccccc23)c(C)n1 [Example 70, 3-[4-[(1-butyl-3-methyl-pyrazol-4-yl)sulfonylamino]-1-naphthyl]-4-fluorobenzoic acid] as the molecule, how does the IC50 read?
Answer: 2600 nM

Question: Which IC50 does the source give for CCCCn1cc(S(=O)(=O)Nc2ccc(-c3cccc(C(=O)O)c3)c3nc(C)ccc23)c(C)n1 [Example 71, 3-[5-[(1-butyl-3-methyl-pyrazol-4-yl)sulfonylamino]-2-methyl-8-quinolyl]benzoic acid] here?
Answer: 22000 nM

Question: CCCn1ncc(S(=O)(=O)Nc2ccc(-c3cc(C(=O)O)ccc3F)c3ccccc23)c1C [Example 72, 4-fluoro-3-[4-[(5-methyl-1-propyl-pyrazol-4-yl)sulfonylamino]-1-naphthyl]benzoic acid] was tested. Which IC50 did it give?
Answer: 1400 nM

Question: How did the IC50 turn out when Cc1ccc(S(=O)(=O)Nc2ccc(-c3cccc(C(=O)O)c3)c3ccccc23)c(Cl)n1 [Example 73, 3-[4-[(2-chloro-6-methyl-3-pyridyl)sulfonylamino]-1-naphthyl]benzoic acid] was run?
Answer: 7700 nM
